Assay results as given in patent US20230270721A1, “INHIBITION OF BAX-MEDIATED CELL DEATH BY ELTROMBOPAG” (Albert Einstein College of Medicine, priority 2020, published 2023).

What was measured:
BAX R134E R145E = target: T1, BAX R134E R145E (Homo sapiens, UniProt Q07812, R134E/R145E); assay: Liposomal permeabilization assay, double mutant; type: biochemical; details: 250 nM BAX and 5 nM tBID; read-out: IC50, inhibition of liposomal release
T1 construct: Human full-length (1-192) wild-type BAX (Q07812); made in house; host or cells: E. coli BL21 (DE3) CodonPlus (DE3)-RIPL
Protocol: Lipids (Avanti Polar Lipids) at the following ratio, phosphatidylcholine 48%, phosphatidylinositol 10%, dioleoyl phosphatidylserine 10%, phosphatidylethanolamine, 28%, and tetraoleoyl cardiolipin 4%, were mixed in a total of 1 mg, dried and resuspended in 10 mM HEPES, pH 7, 200 mM KCI, and 5 mM MgCl2 with 12.5 mM 8-aminonaphthalene-1,3,6-trisulfonic acid (ANTS) dye and 45 mM p-xylene-bis-pyridinium bromide (DPX) quencher (Molecular Probes) using a water bath sonicator. Liposomes were formed by extrusion of the suspension using Avanti Mini-Extruder (Cat # 610000) with polycarbonate membranes of 0.1 µm pore size (Avanti Polar Lipids). […] ANTS/DPX release was quantified based on the increase in fluorescence intensity that occurs when the ANTS fluorophore is separated from the DPX quencher upon release from the liposomes into solution. Fluorescence (λex = 355 nm and λem = 520 nm) was measured at 1 minute intervals at room temperature (22-25° C.) indicated using a Tecan Infinite M1000 plate reader. In the case of heat activation, reactions were set up as described in the absence of tBID or BIM, and experiments were recorded at 42° C. The percentage release of ANTS/DPX at any given time point was calculated as percentage release=((F-F0)/(F100-F0))(100), where F0 and F100 are baseline and maximal fluorescence, respectively. […]

BAK KO (BAK-/-) MEFs = assay: Cytochrome c release assay (ELISA), BAK KO MEFs; type: cell-based, mouse; parameters: dose or concentration left out as unconfirmed; details: BIM-BH3 peptide, EO pretreatment 2 hours
Protocol: BAX^-/^- or BAK^-/^- mouse embryonic fibroblasts were maintained in DMEM (Life Technologies) supplemented with 10% FBS, 100 U/mL penicillin/streptomycin, 2 mM I-glutamine, and 0.1 mM MEM nonessential amino acids. MEFs (5×10^4 cells/well) were seeded in a 96 well clear u-bottom plate for 18-24 hr. Media was removed and replaced with media lacking FBS, and cells were treated with varying doses of EO for 2 hours at 37° C. […] Cytochrome c release was determined by decanting 50 µL of the supernatant and analyzing with the rat/mouse cytochrome c quantikine ELISA kit (R&D Systems, MCTO) according to the recommended protocol. […]
It is important to note that THPO-receptor agonist activity of EO is highly specific to the human and chimpanzee THPO-receptors, making mouse cell lines ideal for studying EO modulation of BAX-dependent activity independent of THPO-mediated effects (Erickson-Miller, C. L. et al. Stem Cells 27, 424-430 (2009)). First, mitochondrial cytochrome c release, a hallmark of BAX activation and BAX-dependent apoptosis, was evaluated. […] Next, mitochondrial translocation of cytosolic BAX upon treatment with either BIM BH3 or staurosporine (STS) in BAK KO MEFs was evaluated.

BAX in BAK KO MEFs = target: T2, BAX in BAK KO MEFs (Mus musculus, UniProt Q07813); assay: Cellular Thermal Shift Assay (CETSA); type: cell-based; details: 10 pM EO, 2 hours
T2 construct: endogenous in cells; host or cells: BAK KO mouse embryonic fibroblasts
Protocol: BAK KO MEFs were seeded in a 10 cm dish for 18-24 hours or until approximately 80% confluent. The media was removed and replaced with media lacking FBS, and cells were treated with 10 pM EO as a 10X stock in H2O or vehicle for 2 hours. The media was then removed, and cells were harvested using a cell scraper and washed twice with PBS. Cells were then resuspended in PBS to 6×10^6 cells/mL, and […] was transferred to PCR tubes. Cells were then heated in a Biorad C1000 Touch Thermal Cycler for 3 minutes using a temperature gradient (50, 52.1, 55.4, 59.4, 64.9, 69.2, 72.1, and 74° C.). Cells remaining at room temperature (25° C.) served as a control. All cells were lysed by three cycles of freeze-thawing using liquid nitrogen. Samples were then centrifuged at 2×10^4 g for 15 minutes. The supernatants were collected and resolved by SDS-PAGE with an N-terminal BAX antibody (Cell Signaling, 2772S). Samples were analyzed and quantified using a Li-Cor Odyssey Clx and normalized to 25° C. (100%) and 74° C.(0%).
To confirm direct engagement of BAX, Cellular Thermal Shift Assay (CETSA) was performed in BAK KO MEFs.

[1] = test system: human IPSC cardiomyocytes; assay: Apoptosis detection (RealTime Glo) in doxorubicin-treated cardiomyocytes; type: cell-based; details: 5 µM Doxorubicin, 10 µM EO

T2 sequence (Q07813 whole entry): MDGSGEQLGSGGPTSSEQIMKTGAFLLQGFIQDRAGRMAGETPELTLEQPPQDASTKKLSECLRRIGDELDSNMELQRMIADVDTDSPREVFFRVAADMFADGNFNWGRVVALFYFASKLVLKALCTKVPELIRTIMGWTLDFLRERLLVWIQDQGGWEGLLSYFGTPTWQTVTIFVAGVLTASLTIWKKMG
T1 sequence (Q07812 whole entry R134E/R145E): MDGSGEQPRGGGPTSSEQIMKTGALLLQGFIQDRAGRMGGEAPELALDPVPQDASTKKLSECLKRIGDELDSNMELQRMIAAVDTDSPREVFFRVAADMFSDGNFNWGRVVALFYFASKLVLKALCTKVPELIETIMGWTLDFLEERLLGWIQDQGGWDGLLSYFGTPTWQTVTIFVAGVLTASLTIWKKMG

## CC1=NN(c2ccc(C)c(C)c2)C(=O)/C1=N\Nc1cccc(-c2cccc(C(=O)O)c2)c1O [EO, eltrombopag]
BAX R134E R145E
  IC50: > 10 µM
BAK KO (BAK-/-) MEFs
  BIM-BH3 induced release of cytochrome c: significantly inhibited
BAX in BAK KO MEFs
  lowering of BAX TM (CETSA): 9 °C
[1]
  apoptosis (cell death) induced by doxorubicin: capable of inhibiting apoptosis
